pIC50: −log10 of the molar value.
Experiments:
human cyp11B2 = target: T1, human cyp11B2 (Homo sapiens, UniProt P19099); experiment: Aldosterone Synthase Inhibitor Assay (V79-hcyp11B2 cells, aldosterone by LC-MS); type: cell-based; settings: aldosterone production from 1 μM DOC, 24 hours incubation, geometric means, separate experiments
T1 construct: expressed in transfected cells
T1 sequence (P19099 25-503): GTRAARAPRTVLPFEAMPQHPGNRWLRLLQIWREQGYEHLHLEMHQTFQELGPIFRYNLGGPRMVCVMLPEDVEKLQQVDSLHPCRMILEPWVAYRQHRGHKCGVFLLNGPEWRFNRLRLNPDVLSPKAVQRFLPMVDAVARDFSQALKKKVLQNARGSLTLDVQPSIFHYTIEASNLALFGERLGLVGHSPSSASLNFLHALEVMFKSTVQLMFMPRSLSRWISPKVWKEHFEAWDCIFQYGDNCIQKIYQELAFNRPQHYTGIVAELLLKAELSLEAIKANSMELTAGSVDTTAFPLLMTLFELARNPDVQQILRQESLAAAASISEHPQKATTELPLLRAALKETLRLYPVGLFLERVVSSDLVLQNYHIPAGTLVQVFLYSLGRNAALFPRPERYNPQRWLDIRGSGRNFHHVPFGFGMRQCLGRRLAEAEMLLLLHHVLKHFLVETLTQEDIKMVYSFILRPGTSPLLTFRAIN
Experimental: Chinese hamster fibroblast cells (V79, ATCC™) constitutively expressing human cyp11B2 are established by transfection with a mammalian expression vector harboring the human cyp11B2 cDNA under CMV promoter and a neomycin antibiotic resistant gene for selection in mammalian cells. V79 cells are transfected in T225 cm^2 flasks with the lipofectamine transfection reagent and the human cyp11B2 cDNA. Positive clones are selected with the selection antibiotic geneticin at 1 mg/mL.
Aldosterone production from transfected cells is initiated by the addition of 1 μM DOC in the medium. After 24 hours incubation, 100 μL cell culture medium is collected and aldosterone concentration in the medium is determined using a liquid chromatography-mass spectrometry (LC-MS) method. […] The wells are then extracted 3× with EtOAc (150 μl) using the FX, combining the organic layers in a new 96-well plate. The solvent is dried in a GeneVac HT-4 or under nitrogen. […] A 25 μl aliquot of the sample is injected and a gradient from 20-100% ACN+0.1% formic acid (FA) in 1 min is initiated. Aldosterone elutes at 0.7 min. Starting conditions are held for 1 minute to re-equilibrate the column. An ABI 4000 tandem mass spectrometer is used for MS/MS analysis in the negative ion mode. […] The area under the peak from each transition is added together to comprise the signal from aldosterone and IS, respectively. […] The detection limit for aldosterone is […].
DOC and various concentrations of test compounds in 1:3 dilution increments are added to the cell culture medium. After 24 hours incubation, 100 μl of cell medium are collected and aldosterone concentration determined as described above. Data are fit to a 4 parameter-fit logistics curve to determine IC50 values.

[1] = tested on: aldosterone production in rats; experiment: Inhibition of Aldosterone Synthase in Rats (rat sodium-deficiency diet model); type: in vivo; settings: for % Inhibition 3 hrs / % Inhibition 6 hrs: inhibition of aldosterone vs vehicle; for % Inhibition 3 hrs / Aldosterone (pg/mL) 3 hrs: 3 hrs post oral dose; for % Inhibition 3 hrs / % Inhibition 6 hrs / Aldosterone (pg/mL) 3 hrs / Aldosterone (pg/mL) 6 hrs: Example 1 10.0 mg/kg, Example 49 30.0 mg/kg, Fadrozole 1.0 mg/kg; for % Inhibition 6 hrs / Aldosterone (pg/mL) 6 hrs: 6 hrs post oral dose; for effect on aldosterone production in vivo (in words) / Aldosterone (pg/mL) 3 hrs / Aldosterone (pg/mL) 6 hrs: rat Na-deficient diet model; for effect on aldosterone production in vivo (in words): summary of Table 18; for Aldosterone (pg/mL) 3 hrs / Aldosterone (pg/mL) 6 hrs: serum
Experimental: The effect of compounds on aldosterone production in rats is assessed using the rat sodium-deficiency diet model. […] At 3 hours post dose rats are bled (˜0.5 mL) from the ocular orbit under isoflurane anesthesia. At 6 hours post-dose the rats are euthanized with CO2 and bled by cardiac puncture. Blood samples are clotted at least 30 minutes and serum is prepared and stored at approximately −80° C. until assayed. Aldosterone, steroids, and compound exposure are analyzed by mass spectroscopy.

[2] = target: cynomolgus monkey cyp11B1 (Macaca fascicularis, UniProt A0A2K5ULY1); experiment: Cynomolgus Monkey Cortisol Inhibition Assay; type: cell-based; settings: V79 cells expressing cynomolgus monkey cyp11B1; n=1; read-out: relative IC50, cynomolgus monkey cortisol inhibition assay
cynomolgus monkey cyp11B1, sequence (A0A2K5ULY1 entry or part of it): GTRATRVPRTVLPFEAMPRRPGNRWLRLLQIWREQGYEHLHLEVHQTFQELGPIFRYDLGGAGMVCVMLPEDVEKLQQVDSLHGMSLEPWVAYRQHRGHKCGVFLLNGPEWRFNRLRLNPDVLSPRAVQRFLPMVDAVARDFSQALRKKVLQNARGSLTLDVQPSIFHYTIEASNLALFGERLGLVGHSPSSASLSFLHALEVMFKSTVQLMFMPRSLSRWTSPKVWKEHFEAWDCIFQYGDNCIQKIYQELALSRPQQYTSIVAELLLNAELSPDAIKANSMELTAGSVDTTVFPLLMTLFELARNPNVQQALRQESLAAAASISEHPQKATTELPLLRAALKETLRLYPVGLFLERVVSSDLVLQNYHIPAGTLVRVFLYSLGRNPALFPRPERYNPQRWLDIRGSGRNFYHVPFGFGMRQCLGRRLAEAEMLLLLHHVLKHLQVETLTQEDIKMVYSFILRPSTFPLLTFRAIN
Experimental: Chinese hamster fibroblast cells (V79) constitutively expressing cynomolgus monkey cyp11B1 is established by transfection with a mammalian expression vector harboring the cynomolgus monkey cyp11B1 cDNA. This cell line was used to measure the activity of compounds in inhibiting […] from cynomolgus monkey enzyme. Cell culture condition and cortisol detection method is performed following the same protocol described in the “cortisol inhibition assay”.

CC1(C)C[C@H](c2ccc(C#N)cc2)c2cn[nH]c21 (single isomer, unassigned) [Example 1]
pIC50 (human cyp11B2): 8.30
% Inhibition 3 hrs [1]: 48%
% Inhibition 6 hrs [1]: 46%
effect on aldosterone production in vivo (in words) [1]: inhibit aldosterone production in vivo
Aldosterone (pg/mL) 3 hrs [1]: 973 pg/mL
Aldosterone (pg/mL) 6 hrs [1]: 1380 pg/mL
pIC50 [2]: 6.68

CC1(C)CC(c2ccc(C#N)cc2F)c2cn[nH]c21 (single isomer, unassigned; isomer 1) [Example 49, 4-(6,6-Dimethyl-4,5-dihydro-1H-cyclopenta[c]pyrazol-4-yl)-3-fluoro-benzonitrile, isomer 1]
pIC50 (human cyp11B2): 8.15
% Inhibition 3 hrs [1]: 46%
% Inhibition 6 hrs [1]: 33%
effect on aldosterone production in vivo (in words) [1]: inhibit aldosterone production in vivo
Aldosterone (pg/mL) 3 hrs [1]: 1008 pg/mL
Aldosterone (pg/mL) 6 hrs [1]: 1704 pg/mL
pIC50 [2]: 6.24
